PubChem BioAssay AID288 (DTP/NCI, 2004)
Where “and” joins values, the source holds several entries; their conditions need not be identical. Equal entries are not always repeated. Inconclusive results are not listed. Numbered stars: 1 amine (or outer) side, 2 acyl side, 3 side chain; on linkers, the order of the positions; unused ones are H or OH. Bridge positions count the residues as written; N and C are the ends. Square brackets hold non-standard residues; d marks the D form. Peptide text beside a SMILES is read from it. I, II: the chains in the order shown. Actinocin(1to9) = Cc1c2oc3c(C)ccc(C(=O)[*:2])c3nc-2c(C(=O)[*:1])c(N)c1=O; Actinocin(9to1) = Cc1c2oc3c(C)ccc(C(=O)[*:1])c3nc-2c(C(=O)[*:2])c(N)c1=O; aThr = C[C@H](O)[C@H](N)C(=O)O; NMeV = CN[CH](C(=O)O)C(C)C; Aze = O=C(O)[CH]1CCN1; Sar = CNCC(=O)O

Tested on: BDF1 mice, M5076 sarcoma s.c., survival/tumor T/C
Assay: NCI In Vivo Anticancer Drug Screen. Data for tumor model Sarcoma M5076 (subcutaneous) in B6D2F1 (BDF1) mice
Protocol: The antitumor activity of compounds was measured in mice bearing transplantable tumors. Survival or tumor size were measured and the results are expressed as the measurement made in the treated group (T) divided by the measurement made in the vehicle treated control group (C). The tumor model used in this assay is Sarcoma M5076 (subcutaneous) in B6D2F1 (BDF1) mice

[1] = endpoint: mean tumor weight, dose: 1.5 mg/kg/injection, schedule: Q02DX011 (ip), vehicle: saline, higher = larger tumour
[2] = endpoint: median tumor weight (est.), dose: 1.5 mg/kg/injection, schedule: Q02DX011 (ip), vehicle: saline, higher = larger tumour
[3] = endpoint: median survival time, dose: 50.0 mg/kg/injection, schedule: Q01DX009 (ip), vehicle: saline with Tween-80, higher = longer survival
[4] = endpoint: median survival time, dose: 100.0 mg/kg/injection, schedule: Q01DX009 (ip), vehicle: saline with Tween-80, higher = longer survival
[5] = endpoint: median survival time, dose: 200.0 mg/kg/injection, schedule: Q01DX009 (ip), vehicle: saline with Tween-80, higher = longer survival
[6] = endpoint: median tumor weight (est.), dose: 50.0 mg/kg/injection, schedule: Q01DX009 (ip), vehicle: saline with Tween-80, higher = larger tumour
[7] = endpoint: median tumor weight (est.), dose: 100.0 mg/kg/injection, schedule: Q01DX009 (ip), vehicle: saline with Tween-80, higher = larger tumour
[8] = endpoint: median tumor weight (est.), dose: 200.0 mg/kg/injection, schedule: Q01DX009 (ip), vehicle: saline with Tween-80, higher = larger tumour

`Nc1ncnc2c1ccn2C1OC(CO)C(O)C1O` (stereo not drawn) was tested, and the T/C (endpoint: mean tumor weight, dose: 0.75 mg/kg/injection, schedule: Q02DX011 (ip), vehicle: saline, higher = larger tumour) was 117 % of control, the T/C [1] was 101 % of control and the T/C (endpoint: median tumor weight (est.), dose: 0.38 mg/kg/injection, schedule: Q02DX011 (ip), vehicle: saline, higher = larger tumour) was 82 % of control. The T/C (endpoint: median tumor weight (est.), dose: 0.75 mg/kg/injection, schedule: Q02DX011 (ip), vehicle: saline, higher = larger tumour) was 168 % of control and the T/C [2] was 110 % of control.
For `COc1cccc(/C=N/NP(=S)(Oc2ccc(C(C)(C)C)cc2)Oc2ccc(C(C)(C)C)cc2)c1OC`, the T/C [3] was 94 % of control, the T/C [4] was 94 % of control and the T/C [5] was 100 % of control. For the same compound, the T/C [6] was 122 % of control, the T/C [7] was 100 % of control and the T/C [8] was 74 % of control.
`CN1C(=O)CN2CCc3ccccc3C2c2cc(Cl)ccc21` (stereo not drawn) was tested, and the T/C [3] was 99 % of control, the T/C [4] was 102 % of control and the T/C [5] was 105 % of control.
In the case of `CCOc1cc(/C=N/NC(=O)N(c2ccccc2)c2ccccc2)ccc1O`, the T/C [3] is reported as 98 % of control, the T/C [4] is reported as 99 % of control and the T/C [5] is reported as 92 % of control.
With `O=C1c2ccccc2C(=O)c2c(NCCNCCO)ccc(NCCNCCO)c21` the T/C (endpoint: median survival time, dose: 7.78 mg/kg/injection, schedule: Q04DX004 (ip), vehicle: saline, higher = longer survival) was 100 % of control, the T/C (endpoint: median survival time, dose: 7.78 mg/kg/injection, schedule: Q04DX004 (iv), vehicle: saline, higher = longer survival) was 102 % of control and the T/C (endpoint: median survival time, dose: 13.0 mg/kg/injection, schedule: Q04DX004 (ip), vehicle: saline, higher = longer survival) was 96 % of control. The T/C (endpoint: median survival time, dose: 13.0 mg/kg/injection, schedule: Q04DX004 (iv), vehicle: saline, higher = longer survival) was 88 % of control, the T/C (endpoint: median survival time, dose: 21.6 mg/kg/injection, schedule: Q04DX004 (ip), vehicle: saline, higher = longer survival) was 90 % of control and the T/C (endpoint: median survival time, dose: 21.6 mg/kg/injection, schedule: Q04DX004 (iv), vehicle: saline, higher = longer survival) was 100 % of control. For the same compound, the T/C (endpoint: median survival time, dose: 36.0 mg/kg/injection, schedule: Q04DX004 (ip), vehicle: saline, higher = longer survival) was 103 % of control.
In the case of `O=C1/C(=C/c2ccc3c(c2)OCO3)SC(=S)N1c1ccc(Cl)c(Cl)c1`, the T/C [3] is reported as 102 % of control, the T/C [4] is reported as 90 % of control and the T/C [6] is reported as 154 % of control. The T/C [7] was 116 % of control.
In the case of `COC12C(COC(N)=O)C3=C(C(=O)C(C)=C(N)C3=O)N1CC1C2N1C` (stereo not drawn), the T/C [1] is reported as 59 % of control, the T/C (endpoint: mean tumor weight, dose: 3.0 mg/kg/injection, schedule: Q02DX011 (ip), vehicle: saline, higher = larger tumour) is reported as 51 % of control and the T/C (endpoint: mean tumor weight, dose: 6.0 mg/kg/injection, schedule: Q02DX011 (ip), vehicle: saline, higher = larger tumour) is reported as 2 % of control. The T/C [2] was 65 % of control, the T/C (endpoint: median tumor weight (est.), dose: 3.0 mg/kg/injection, schedule: Q02DX011 (ip), vehicle: saline, higher = larger tumour) was 49 % of control and 53 % of control and the T/C (endpoint: median tumor weight (est.), dose: 6.0 mg/kg/injection, schedule: Q02DX011 (ip), vehicle: saline, higher = larger tumour) was 1 % of control.
In the case of `COC1=C(C)C(=O)C2=C(C1=O)C(CO)N1C(C#N)C3CC4C(C1C2N1CCOC41)N3C` (stereo not drawn), the T/C (endpoint: median survival time, dose: 0.06 mg/kg/injection, schedule: Q01DX009 (ip), vehicle: saline + alcohol, higher = longer survival) is reported as 100 % of control, the T/C (endpoint: median survival time, dose: 0.13 mg/kg/injection, schedule: Q01DX009 (ip), vehicle: saline + alcohol, higher = longer survival) is reported as 96 % of control and the T/C (endpoint: median survival time, dose: 0.25 mg/kg/injection, schedule: Q01DX009 (ip), vehicle: saline + alcohol, higher = longer survival) is reported as 91 % of control. For the same compound, the T/C (endpoint: median survival time, dose: 0.5 mg/kg/injection, schedule: Q01DX009 (ip), vehicle: saline + alcohol, higher = longer survival) was 106 % of control, the T/C (endpoint: median tumor weight (est.), dose: 0.06 mg/kg/injection, schedule: Q01DX009 (ip), vehicle: saline + alcohol, higher = larger tumour) was 103 % of control and the T/C (endpoint: median tumor weight (est.), dose: 0.13 mg/kg/injection, schedule: Q01DX009 (ip), vehicle: saline + alcohol, higher = larger tumour) was 153 % of control. The T/C (endpoint: median tumor weight (est.), dose: 0.25 mg/kg/injection, schedule: Q01DX009 (ip), vehicle: saline + alcohol, higher = larger tumour) was 95 % of control and the T/C (endpoint: median tumor weight (est.), dose: 0.5 mg/kg/injection, schedule: Q01DX009 (ip), vehicle: saline + alcohol, higher = larger tumour) was 80 % of control.
For `CNC(=O)c1ccccc1C1(O)c2ccccc2CCc2ccccc21`, the T/C [3] was 109 % of control and the T/C [5] was 100 % of control.
`COc1ccc(/C=C2\SC(=O)N(C)C2=O)cc1OC` was tested, and the T/C [3] was 93 % of control, the T/C [4] was 100 % of control and the T/C [5] was 93 % of control. The T/C [6] was 104 % of control, the T/C [7] was 110 % of control and the T/C [8] was 77 % of control.
With `c1cc2n(n1)CCN2` the T/C (endpoint: mean tumor weight, dose: 6.25 mg/kg/injection, schedule: Q02DX011 (ip), vehicle: saline, higher = larger tumour) was 122 % of control, the T/C (endpoint: mean tumor weight, dose: 12.5 mg/kg/injection, schedule: Q02DX011 (ip), vehicle: saline, higher = larger tumour) was 85 % of control and the T/C (endpoint: mean tumor weight, dose: 25.0 mg/kg/injection, schedule: Q02DX011 (ip), vehicle: saline, higher = larger tumour) was 103 % of control. The T/C (endpoint: median tumor weight (est.), dose: 6.25 mg/kg/injection, schedule: Q02DX011 (ip), vehicle: saline, higher = larger tumour) was 161 % of control.
In the case of `Cc1c2oc3c(C)ccc(C(=O)NC4C(=O)NC(C(C)C)C(=O)N5CCCC5C(=O)N(C)CC(=O)N(C)C(C(C)C)C(=O)OC4C)c3nc-2c(C(=O)NC2C(=O)NC(C(C)C)C(=O)N3CCC3C(=O)N(C)CC(=O)N(C)C(C(C)C)C(=O)OC2C)c(N)c1=O` (stereo not drawn) (I: TV[Aze][Sar][NMeV] / II: TVP[Sar][NMeV]; ester I:1-I:C, II:1-II:C; linker I:N-II:N via Actinocin(1to9); configuration not given here), the T/C (endpoint: median tumor weight (est.), dose: 14.0 micrograms/kg/injection, schedule: Q02DX011 (ip), vehicle: saline, higher = larger tumour) is reported as 112 % of control, the T/C (endpoint: median tumor weight (est.), dose: 23.3 micrograms/kg/injection, schedule: Q02DX011 (ip), vehicle: saline, higher = larger tumour) is reported as 99 % of control and the T/C (endpoint: median tumor weight (est.), dose: 38.9 micrograms/kg/injection, schedule: Q02DX011 (ip), vehicle: saline, higher = larger tumour) is reported as 87 % of control. The T/C (endpoint: median tumor weight (est.), dose: 64.8 micrograms/kg/injection, schedule: Q02DX011 (ip), vehicle: saline, higher = larger tumour) was 120 % of control, the T/C (endpoint: median tumor weight (est.), dose: 108.0 micrograms/kg/injection, schedule: Q02DX011 (ip), vehicle: saline, higher = larger tumour) was 64 % of control and the T/C (endpoint: median tumor weight (est.), dose: 180.0 micrograms/kg/injection, schedule: Q02DX011 (ip), vehicle: saline, higher = larger tumour) was 96 % of control. The T/C (endpoint: median tumor weight (est.), dose: 300.0 micrograms/kg/injection, schedule: Q02DX011 (ip), vehicle: saline, higher = larger tumour) was 59 % of control.
In the case of `Cc1c2oc3c(C)ccc(C(=O)N[C@@H]4C(=O)N[C@H](C(C)C)C(=O)N5CCC[C@H]5C(=O)N(C)CC(=O)N(C)[C@@H](C(C)C)C(=O)O[C@H]4C)c3nc-2c(C(=O)N[C@@H]2C(=O)N[C@H](C(C)C)C(=O)N3CCC[C@H]3C(=O)N(C)CC(=O)N(C)[C@@H](C(C)C)C(=O)O[C@H]2C)c(N)c1=O` (I: [aThr][dV]P[Sar][NMeV] / II: [aThr][dV]P[Sar][NMeV]; ester I:1-I:C, II:1-II:C; linker I:N-II:N via Actinocin(9to1)), the T/C (endpoint: median survival time, dose: 0.01 mg/kg/injection, schedule: Q04DX006 (ip), vehicle: saline, higher = longer survival) is reported as 102 % of control, the T/C (endpoint: median survival time, dose: 0.03 mg/kg/injection, schedule: Q04DX006 (ip), vehicle: saline, higher = longer survival) is reported as 95 % of control and the T/C (endpoint: median survival time, dose: 0.06 mg/kg/injection, schedule: Q04DX006 (ip), vehicle: saline, higher = longer survival) is reported as 102 % of control. The T/C (endpoint: median survival time, dose: 0.12 mg/kg/injection, schedule: Q04DX006 (ip), vehicle: saline, higher = longer survival) was 102 % of control, the T/C (endpoint: median tumor weight (est.), dose: 4.7 micrograms/kg/injection, schedule: Q02DX011 (ip), vehicle: saline, higher = larger tumour) was 78 % of control and the T/C (endpoint: median tumor weight (est.), dose: 7.8 micrograms/kg/injection, schedule: Q02DX011 (ip), vehicle: saline, higher = larger tumour) was 109 % of control. The T/C (endpoint: median tumor weight (est.), dose: 13.0 micrograms/kg/injection, schedule: Q02DX011 (ip), vehicle: saline, higher = larger tumour) was 66 % of control, the T/C (endpoint: median tumor weight (est.), dose: 21.6 micrograms/kg/injection, schedule: Q02DX011 (ip), vehicle: saline, higher = larger tumour) was 83 % of control and the T/C (endpoint: median tumor weight (est.), dose: 36.0 micrograms/kg/injection, schedule: Q02DX011 (ip), vehicle: saline, higher = larger tumour) was 59 % of control. The T/C (endpoint: median tumor weight (est.), dose: 60.0 micrograms/kg/injection, schedule: Q02DX011 (ip), vehicle: saline, higher = larger tumour) was 78 % of control and the T/C (endpoint: median tumor weight (est.), dose: 100.0 micrograms/kg/injection, schedule: Q02DX011 (ip), vehicle: saline, higher = larger tumour) was 51 % of control.
With `CSc1ccc(NC(=O)NNP(=S)(Oc2ccc(C(C)(C)C)cc2)Oc2ccc(C(C)(C)C)cc2)cc1` the T/C [3] was 102 % of control, the T/C [4] was 107 % of control and the T/C [5] was 87 % of control. The T/C [6] was 92 % of control, the T/C [7] was 83 % of control and the T/C [8] was 92 % of control.
